As a reminder, the Kd is the free concentration of one partner at which half of the binding sites on the other are occupied at equilibrium, for simple one-to-one binding.

Consider 3 compounds from article PMC8587043, “An Investigation into the Interaction between Double Hydroxide-Based Antioxidant Benzophenone Derivatives and Cyclooxygenase 2” (Molecules, 2021).

In assay [1] the target is T1, COX2 (Homo sapiens, UniProt P35354).
T1 construct: purchased Sino Biological Co. (Beijing, China)
T1 sequence (P35354 18-604): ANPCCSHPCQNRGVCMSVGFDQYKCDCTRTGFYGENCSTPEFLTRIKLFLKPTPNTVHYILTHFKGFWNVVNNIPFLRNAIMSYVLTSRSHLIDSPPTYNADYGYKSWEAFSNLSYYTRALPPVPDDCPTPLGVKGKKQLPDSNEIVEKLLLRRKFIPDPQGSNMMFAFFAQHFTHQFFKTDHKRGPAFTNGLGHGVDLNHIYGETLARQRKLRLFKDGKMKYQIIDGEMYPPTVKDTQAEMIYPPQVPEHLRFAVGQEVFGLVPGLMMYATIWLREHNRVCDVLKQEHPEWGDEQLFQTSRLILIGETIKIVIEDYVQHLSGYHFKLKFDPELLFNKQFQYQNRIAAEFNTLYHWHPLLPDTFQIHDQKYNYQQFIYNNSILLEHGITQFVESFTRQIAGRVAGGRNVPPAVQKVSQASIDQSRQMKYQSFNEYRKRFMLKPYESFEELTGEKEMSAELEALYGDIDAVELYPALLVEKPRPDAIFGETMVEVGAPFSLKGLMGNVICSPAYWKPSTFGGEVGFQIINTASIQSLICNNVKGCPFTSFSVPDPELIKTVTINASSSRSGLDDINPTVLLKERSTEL
Nature of the assay: Biolayer interferometry (BLI) binding to His-tagged COX2 on Ni-NTA sensors. The settings on record: for Kd: BLI, one-to-one binding model, 4–6 point concentration series, read-out: KD (equilibrium dissociation constant); for COX2 binding in BLI: initial assay at 100 μM, binders re-assayed in concentration series. An excerpt: The label-free real-time binding assay, BLI, was firstly performed to evaluate the potential COX2 binding activities of the twelve novel compounds. COX2 protein was captured onto the Ni-NTA sensors, by the virtue of its His-tag, followed by exposure to small-molecule compound. The binding of small-molecule compound to the biosensor increased the layer thickness of the sensor, resulting in an interference wavelength shift recorded by BLI. All 12 compounds were initially assayed at a single concentration of 100 μM (Figure 2a).
A significant shift in the association curve was observed upon addition of different concentrations of compounds DB2, SC2 and YB2 to COX2 in a concentration dependent manner (Figure 2b–d). During the dissociation step, it was also observed that the signal decreased to the baseline. That was a sign of a total protein-ligand dissociation, thus indicating the interaction was reversible. The real-time binding curves were generated fitting to a one-to-one binding model. The ratio of koff (dissociation) and kon (association) constants was equilibrium dissociation constants (KD).
His-tagged COX2 solution (40 μg∙mL^−1), which was prepared in phosphate buffer saline (PBS), was immobilized on Ni-NTA biosensor tips for 600 s. To remove drift and well-to-well artifacts, we performed double reference subtraction with FortéBio data analysis software. All the twelve compounds stock solutions (10 mM) were prepared in dimethyl sulfoxide (DMSO). The stock solutions were diluted with PBS containing 0.1% […] (PBST) to 100 μM for the initial assay. Typically, for re-assay, the stock solutions were serially diluted (4–6 point serial dilutions) in PBST. Compound testing was performed sequentially taking baseline, association and dissociation steps. Each of these steps took 60 s. The alignment of data was carried out using baseline signal and curves fitted with a one to one best-fit model in FortéBio’s data analysis software.
In general terms: BLI is a label-free optical method that tracks binding on a fibre tip over time.

Assay [2] addresses T1, COX2. Nature of the assay: Three-dimensional fluorescence spectroscopy of COX2-compound systems. Type of assay: binding. The note with it: for Peak Position λex/λem, peak 2 / Relative Intensity (I), peak 2 / Relative Intensity (I), peak 1: compound 4.50 × 10^−5 mol∙L^−1, 298 K; for Relative Intensity (I), peak 2: COX2 alone 775; for Relative Intensity (I), peak 1: COX2 alone 874. An excerpt:
Three-dimensional fluorescence spectroscopy can reflect the microenvironment of related fluorophores. It was employed to study the structural changes of COX2 before and after binding. Peak 1 and peak 2 were maintained at 272/338 nm and 230/337 nm, respectively. […] Peak 2 reflected the fluorescence information of the polypeptide backbone structure of COX2, involving pi-to-pi* transition related to the secondary structure changes. According to Figure 7 and Table 3, both peak 1 and peak 2 of COX2 had been quenched. […] Furthermore, the fluorescence intensity of peak 1 was higher than that of peak 2 in the spectra for COX2-SC2 complex (Table 3). It implies that the fluorescence quenching of COX2 by compound SC2 on peak 2 was more evident than on peak 1. We could draw a conclusion that the interaction of compound SC2 with COX2 induced the slight opening of the polypeptides of protein, thereafter changing the conformation of COX2. […] Comparison of Figure 7a with Figure 7c also implied that there was a blue shift of 5.5 nm for peak 1, and 4 nm for peak 2. […] These changes induced the increase in hydrophobicity of COX2, decrease in collisions between COX2 molecules and water, and increase in the quantum yield of COX2. […] Taken together, these combined results implicate the ability of compounds DB2, SC2 and YB2 to bind to COX2.
The fluorescence intensity of the system was measured with a 1.0 cm quartz cell. […] DB2, SC2 or YB2 stock solutions were prepared in singleton at 1.5 × 10^−3 mol∙L^−1 in PBS containing 0.1% DMSO. 2.0 mL COX2 solution was separately titrated by continuing additions of 10 μL compounds DB2, SC2 or YB2 solution). After incubation at 298 K or 310 K, fluorescence quenching spectra were recorded in the region 325-450 nm at a scan rate of 1200 nm∙min^−1. The local environment of Tyr and Trp residues was quite sensitive at 280 nm, so the excitation wavelength was set at this wavelength. Typically, 280 nm is also used to measure the changes in protein tertiary structure. The slit widths of emission and excitation were both fixed at 10 nm. To observe spectra behaviors of Tyr and Trp groups of COX2, the wavelength interval between the excitation and emission wavelengths (Δλ) was set as 15 nm and 60 nm, respectively. Three-dimensional fluorescence spectroscopy was obtained for an excitation range of 200–300 nm and an emission range of 325–400 nm. Appropriate buffer solutions, determined under the same operation conditions, were used as blanks. Each spectrum was recorded three times.

Regarding `CCCCc1ccc(C(=O)c2c(Br)cc(O)c(O)c2O)cc1` [DB2], in assay [1], the equilibrium dissociation constant (Kd) is 394 µM and the “COX2 binding in BLI” value is reported as “interacted with the protein”. In addition, in assay [2], the “Peak Position λex/λem, peak 2” value is on record as 236/337; the “Relative Intensity (I), peak 2” value worked out at 153; the “Relative Intensity (I), peak 1” value is given as 665.
On to `CC(C)(C)c1ccc(C(=O)c2c(Cl)cc(O)c(O)c2O)cc1` [SC2], for which, in assay [1], the dissociation constant (Kd) stood at 627 µM and the “COX2 binding in BLI” value is reported as “interacted with the protein”. Further, in assay [2] (COX2-compound vs COX2 alone), the “blue shift of peak 1” value amounted to 5.5 nm and the “blue shift of peak 2” value turned out to be 4 nm. In addition, in assay [2], the “Peak Position λex/λem, peak 2” value is recorded as 236/333; the “Relative Intensity (I), peak 2” value is on record as 82.9; the “Relative Intensity (I), peak 1” value came out at 395.
For `CC(C)Cc1ccc(C(=O)c2c(Br)cc(O)c(O)c2O)cc1` [YB2], in assay [1], the Kd is 766 µM and the “COX2 binding in BLI” value is listed as “interacted with the protein”. Besides, in assay [2], the “Peak Position λex/λem, peak 2” value was 236/336; the “Relative Intensity (I), peak 2” value was 103; the “Relative Intensity (I), peak 1” value came out at 472.
